# Patent publication US20040006236A1, “Diaminopropionic acid derivatives” (priority 1999, published 2004)
# Read-outs that look alike come from different tables or passages of the source.
# How the values were obtained:
# [1] = system: cell-surface Mac-1 adhesion to immobilized fibrinogen (HL-60 cells); assay: Mac-1/Fibrinogen cell-based screening assay; design: species or system human; details: read-out: Mac-1/Fgn Cell based Assay IC50
# Description: Cellular Mac-1/Fibrinogen antagonist activity, defined as the ability to inhibit cell-surface Mac-1 adhesion to immobilized fibrinogen, was quantitated by a cell based assay. Human fibrinogen was coated onto 96 well microtiter plates (1 μg in 100 μL TBS) overnight at 4° C. The plates were then blocked with 150 μL of 10% polyvinyl pyrrolidone (PVP) in TBS for 1 h at 37° C. Plates were washed 3 times (150 μL each) with TBS. […] A ten-fold excess of volume of the same buffer was added and cells were centrifuged. The medium was decanted and cells were resuspended at a concentration of 2×10^6 cells/mL in RPMI/0.05% BSA/0.2 mM MnCl2. Stock solutions (10 mM in DMSO) of test compounds were diluted to 2.5 mM with DMSO. […] Each sample was further diluted 50-fold with RPMI/0.05% BSA/0.2 mM MnCl2. Equal volumes of labeled cells were then added to assay tubes containing diluted compounds. […] Cells were incubated for 10 min at 37° C. with gentle shaking, then dispensed (100 μL per well) onto fibrinogen coated plates and incubated for 30 min at 37° C./5% CO2. Unbound cells were gently washed with TBS two times.
# [2] = target: T1, LFA-1 binding to immobilized ICAM-1 (Homo sapiens, UniProt P05107+P20701); assay: LFA-1/ICAM-1 protein-protein assay (solid-phase ELISA); details: read-out: LFA-1/ICAM-1 Protein-Protein Assay IC50
# T1 construct: made in house; host or cells: transfected 293 cells (LFA-1)
# T1 sequence (P20701 26-1170): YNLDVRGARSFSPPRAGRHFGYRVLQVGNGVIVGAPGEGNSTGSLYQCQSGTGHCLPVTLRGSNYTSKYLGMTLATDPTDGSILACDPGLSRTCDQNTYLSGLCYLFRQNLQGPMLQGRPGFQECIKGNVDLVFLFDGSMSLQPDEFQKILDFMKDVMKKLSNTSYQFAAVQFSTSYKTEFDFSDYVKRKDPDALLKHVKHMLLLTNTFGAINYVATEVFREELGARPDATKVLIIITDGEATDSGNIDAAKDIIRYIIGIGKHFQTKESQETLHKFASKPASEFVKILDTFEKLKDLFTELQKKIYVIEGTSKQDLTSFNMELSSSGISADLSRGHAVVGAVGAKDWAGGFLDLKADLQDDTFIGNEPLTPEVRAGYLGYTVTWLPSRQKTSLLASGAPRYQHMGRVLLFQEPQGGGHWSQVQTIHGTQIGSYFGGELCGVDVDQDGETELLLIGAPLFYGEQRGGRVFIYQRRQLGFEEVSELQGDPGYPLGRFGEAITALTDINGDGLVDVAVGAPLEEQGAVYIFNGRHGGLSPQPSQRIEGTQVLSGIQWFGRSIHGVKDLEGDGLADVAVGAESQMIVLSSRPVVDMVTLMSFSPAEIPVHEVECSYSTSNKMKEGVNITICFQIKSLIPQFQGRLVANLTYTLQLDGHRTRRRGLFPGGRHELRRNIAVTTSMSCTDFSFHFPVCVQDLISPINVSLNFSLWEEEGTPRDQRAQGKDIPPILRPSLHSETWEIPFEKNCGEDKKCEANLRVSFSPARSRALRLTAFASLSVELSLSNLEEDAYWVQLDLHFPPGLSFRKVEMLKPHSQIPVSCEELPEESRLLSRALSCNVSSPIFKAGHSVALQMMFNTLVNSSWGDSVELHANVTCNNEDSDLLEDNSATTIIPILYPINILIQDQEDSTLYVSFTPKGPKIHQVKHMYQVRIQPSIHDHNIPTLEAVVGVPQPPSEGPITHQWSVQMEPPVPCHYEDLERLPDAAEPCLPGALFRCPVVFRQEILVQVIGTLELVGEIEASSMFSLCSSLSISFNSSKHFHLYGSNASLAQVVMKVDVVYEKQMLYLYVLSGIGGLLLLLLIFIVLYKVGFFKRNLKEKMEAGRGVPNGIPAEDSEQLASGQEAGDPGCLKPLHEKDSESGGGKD
# T1 sequence (P05107 23-769): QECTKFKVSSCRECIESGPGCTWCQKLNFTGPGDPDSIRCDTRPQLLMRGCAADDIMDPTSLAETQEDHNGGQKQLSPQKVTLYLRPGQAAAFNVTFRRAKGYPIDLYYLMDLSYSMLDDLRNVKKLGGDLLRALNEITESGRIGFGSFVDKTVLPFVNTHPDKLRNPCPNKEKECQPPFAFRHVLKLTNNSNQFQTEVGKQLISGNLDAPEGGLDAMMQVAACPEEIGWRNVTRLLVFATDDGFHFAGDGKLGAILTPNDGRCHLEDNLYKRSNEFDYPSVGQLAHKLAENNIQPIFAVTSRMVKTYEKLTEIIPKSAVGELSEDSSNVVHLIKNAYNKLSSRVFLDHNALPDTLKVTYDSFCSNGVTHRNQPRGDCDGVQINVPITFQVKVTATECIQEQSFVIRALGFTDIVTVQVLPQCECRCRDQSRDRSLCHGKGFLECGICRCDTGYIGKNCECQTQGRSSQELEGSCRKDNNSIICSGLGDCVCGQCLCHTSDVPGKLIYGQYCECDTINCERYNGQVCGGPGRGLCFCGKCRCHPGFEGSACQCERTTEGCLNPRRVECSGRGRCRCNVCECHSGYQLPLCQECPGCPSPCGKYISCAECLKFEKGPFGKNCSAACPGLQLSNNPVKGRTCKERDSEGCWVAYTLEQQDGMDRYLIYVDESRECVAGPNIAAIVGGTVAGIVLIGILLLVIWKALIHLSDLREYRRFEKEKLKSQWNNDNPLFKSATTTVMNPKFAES
# Method in brief: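 Human 5dICAM-Ig (ICAM-1 extracellular domain–IgG Fc) coated on plates; membrane-bound LFA-1 from transfected 293 cells (280 ng/mL) added with compound in Mn2+-containing HEPES buffer pH 7.2, 2 h at 37° C. Bound LFA-1 detected via anti-β2 antibody and HRP/TMB at 450 nm; IC50s determined.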
# [3] = system: T lymphocyte proliferation (C57BI/6 spleen cells with irradiated BALB/c spleen cells); assay: Mixed lymphocyte reaction (MLR), one-way; assay type: cell-based, mice; details: read-out: MLR IC50
# Text: Admixture of murine spleen cells from two different inbred strains of mice induces proliferation of T lymphocytes. The magnitude of T cell proliferation depends on the extent of disparity in the major histocompatibility antigens between the two strains. Splenic T lymphocytes from both strains proliferate due to alloantigen recognition, a process for which the interaction of ICAM-1 on antigen-presenting cells with LFA-1 on lymphocytes is necessary. The ability of antagonists to inhibit T lymphocyte proliferation following recognition of alloantigens was assessed in a one-way MLR, where cells from one strain were irradiated to permit measurement of the proliferative response of cells from the other strain. Spleen cells were washed three times in tissue culture medium (TCM; see below). […] One hundred microliters of serial dilutions of antagonists or TCM were added to the spleen cell mixture. The total volume in each well was 200 μL. TCM was RPMI1640 containing 10% heat-inactivated fetal bovine serum, […] L-glutamine, 100 Units/ml each of penicillin and streptomycin and 5×10^−5 M 2-mercaptoethanol. Dilutions of antagonists were prepared in TCM. Plates were incubated in 5% CO2 for 3 days. On the third day, 0.5 μCi of tritiated thymidine (10 μCi/mL) was added to all the wells. Cells were harvested 6 h later on a 96-well plate harvester and the amount of tritiated thymidine incorporated was assessed in a liquid scintillation counter.
# [4] = Homo sapiens, HL-60, HL-60 cells
"IC50 [1, 4] [nM]",IC50 [2] [nM],IC50 ([1]; HL-60 cells) [nM],SMILES,"IC50 ([3]; Mus musculus, T-lymphocyte) [nM]",IC50 [3] [nM]
64,1,–,O=C(NC[C@H](NC(=O)c1ccc(C(O)CCc2cccc(O)c2)cc1Cl)C(=O)O)c1cccs1 (mixture of isomers) [Example 320],145,–
149,7.1,–,"O=C(NCc1cccc(O)c1)c1ccc(C(=O)N[C@@H](CNC(=O)c2cc(Br)cc(Br)c2)C(=O)O)c(Cl)c1 [Example 228, N-[2-chloro-4-[[[(3-hydroxyphenyl)methyl]amino]carbonyl]benzoyl]-3-(3,5-dibromobenzoyl)amino-L-alanine]",5000,–
330,5.4,–,O=C(NCc1cccc(O)c1)c1ccc(C(=O)N[C@@H](CNC(=O)c2cc(F)cc(C(F)(F)F)c2)C(=O)O)c(Cl)c1 [Example 260],1950,–
71,2.9,–,O=C(NCc1cccc(O)c1)c1ccc(C(=O)N[C@@H](CNC(=O)[C@@H]2CSCN2)C(=O)O)c(Cl)c1 [Example 267],490,–
148,1.7,–,O=C(NCc1cccc(O)c1)c1ccc(C(=O)N[C@@H](CNC(=O)[C@@H]2C[C@@H](O)CN2)C(=O)O)c(Cl)c1 [Example 268],900,–
357,7.9,–,NCCCCCCCCCCC(=O)NC[C@H](NC(=O)c1ccc(C(=O)NCc2cccc(O)c2)cc1Cl)C(=O)O [Example 270],4750,–
547,3.8,–,N[C@@H](Cc1ccc([N+](=O)[O-])cc1)C(=O)NC[C@H](NC(=O)c1ccc(C(=O)NCc2cccc(O)c2)cc1Cl)C(=O)O [Example 271],4100,–
1740,7.4,–,N[C@@H](Cc1ccc(OCc2c(Cl)cccc2Cl)cc1)C(=O)NC[C@H](NC(=O)c1ccc(C(=O)NCc2cccc(O)c2)cc1Cl)C(=O)O [Example 273],12000,–
235,6.9,–,N[C@H](Cc1c[nH]c2ccccc12)C(=O)NC[C@H](NC(=O)c1ccc(C(=O)NCc2cccc(O)c2)cc1Cl)C(=O)O [Example 276],7250,–
282,4.3,–,CC(C)C[C@H](N)C(=O)NC[C@H](NC(=O)c1ccc(C(=O)NCc2cccc(O)c2)cc1Cl)C(=O)O [Example 277],8700,–
311,8.5,–,CCCC[C@H](N)C(=O)NC[C@H](NC(=O)c1ccc(C(=O)NCc2cccc(O)c2)cc1Cl)C(=O)O [Example 278],13500,–
371,8,–,CN[C@@H](C)C(=O)NC[C@H](NC(=O)c1ccc(C(=O)NCc2cccc(O)c2)cc1Cl)C(=O)O [Example 279],2200,–
–,3.1,77,C[C@H](N)C(=O)NC[C@H](NC(=O)c1ccc(C(=O)NCc2cccc(O)c2)cc1Cl)C(=O)O [Example 280],4200,–
–,–,291,C[C@H](N)C(=O)NC[C@H](NC(=O)c1ccc(C(=O)NCc2cccc(O)c2)cc1Cl)C(=O)O [Example 281],–,4450
162,4.6,–,CC(C)(N)C(=O)NC[C@H](NC(=O)c1ccc(C(=O)NCc2cccc(O)c2)cc1Cl)C(=O)O [Example 282],1050,–
166,3.1,–,CNCC(=O)NC[C@H](NC(=O)c1ccc(C(=O)NCc2cccc(O)c2)cc1Cl)C(=O)O [Example 283],1500,–

"IC50 [1, 4] [nM]",IC50 [2] [nM],IC50 ([1]; HL-60 cells) [nM],SMILES,"IC50 ([3]; Mus musculus, T-lymphocyte) [nM]",IC50 [3] [nM]
198,5.7,–,NC1(C(=O)NC[C@H](NC(=O)c2ccc(C(=O)NCc3cccc(O)c3)cc2Cl)C(=O)O)CCCCC1 [Example 284],1130,–
135,3.1,–,N[C@H](C(=O)NC[C@H](NC(=O)c1ccc(C(=O)NCc2cccc(O)c2)cc1Cl)C(=O)O)c1ccccc1 [Example 285],3100,–
74,4.1,–,NC[C@H]1CC[C@H](C(=O)NC[C@H](NC(=O)c2ccc(C(=O)NCc3cccc(O)c3)cc2Cl)C(=O)O)CC1 [Example 286],1520,–
290,6.3,–,N[C@@H](COCc1ccccc1)C(=O)NC[C@H](NC(=O)c1ccc(C(=O)NCc2cccc(O)c2)cc1Cl)C(=O)O [Example 293],13500,–
89,1.9,–,N[C@H]1Cc2ccccc2CN(CC(=O)NC[C@H](NC(=O)c2ccc(C(=O)NCc3cccc(O)c3)cc2Cl)C(=O)O)C1=O [Example 295],1620,–
167,3.4,–,O=C(NCc1cccc(O)c1)c1ccc(C(=O)N[C@@H](CNC(=O)[C@@H]2Cc3c([nH]c4ccccc34)CN2)C(=O)O)c(Cl)c1 [Example 296],4600,–
32,1.5,–,Cc1cc(C(=O)NCc2cccc(O)c2)ccc1C(=O)N[C@@H](CNC(=O)c1ccccc1)C(=O)O [Example 324],460,–
59,2.6,–,Cc1cc(C(=O)N[C@H](C)c2cccc3ccccc23)ccc1C(=O)N[C@@H](CNC(=O)c1cccs1)C(=O)O [Example 325],965,–
93,4.1,–,Cc1cc(C(=O)N[C@H](C)c2cccc3ccccc23)ccc1C(=O)N[C@@H](CNC(=O)c1ccccc1)C(=O)O [Example 326],1500,–
28,1.3,–,"O=C(NCc1cccc(O)c1)c1ccc(C(=O)N[C@@H](CNC(=O)c2cccs2)C(=O)O)c(Br)c1 [Example 328, N-[2-bromo-4-[[[(3-hydroxyphenyl)methyl]amino]carbonyl]benzoyl]-3-(thiophene-2-carbonyl)amino-L-alanine]",160,–
68,1.1,–,O=C(NCc1cccc(O)c1)c1ccc(C(=O)N[C@@H](CNC(=O)c2cccs2)C(=O)O)c(F)c1 [Example 331],710,–
19.8,1.3,–,"O=C(NCc1cccc(O)c1)c1cc(Cl)c(C(=O)N[C@@H](CNC(=O)c2cccc(Cl)c2)C(=O)O)c(Cl)c1 [Example 348, 3-[(3-chlorobenzoyl)amino]-N-[2,6-dichloro-4-[[[(3-hydroxyphenyl)methyl]amino]carbonyl]benzoyl]-L-alanine]",173,–
28,1.2,–,Cc1cccc(C(=O)NC[C@H](NC(=O)c2c(Cl)cc(C(=O)NCc3cccc(O)c3)cc2Cl)C(=O)O)c1 [Example 352],91,–
17.7,0.9,–,O=C(NCc1cccc(O)c1)c1cc(Cl)c(C(=O)N[C@@H](CNC(=O)c2sccc2Cl)C(=O)O)c(Cl)c1 [Example 355],86,–
81,3.4,–,O=C(NCc1cccc(O)c1)c1cc(Cl)c(C(=O)N[C@@H](CNC(=O)c2cc(Br)c(Br)s2)C(=O)O)c(Cl)c1 [Example 356],1760,–
23,0.5,–,Cc1ccsc1C(=O)NC[C@H](NC(=O)c1c(Cl)cc(C(=O)NCc2cccc(O)c2)cc1Cl)C(=O)O [Example 357],21,–
